# Reference: patent EP4768484A1, “HETEROCYCLIC FUSED RING COMPOUND, AND COMPOSITION AND USE THEREOF” (Shenzhen TargetRx, Inc., priority 2023, dated 2025)
# Key:
# Type in all cases: cell-based
# [1] = system: K562 cells; experiment: Cell growth inhibitory activity assay (CellTiter-Glo), K562 cells; details: Homo sapiens, 72 h, CTG cell viability
# Protocol: (§1) In this assay, the Celltiter-Glo (CTG) kit provided by Promega was used, and it is a homogeneous cell viability assay method. The cell viability of cultured cells was measured by quantifying ATP. K562 cells were purchased from Nanjing Kebai, product number CBP60529; Ba/F3 parental cells were purchased from RIKEN BRC, product number RCB0805; other cells containing BCR-ABL1 WT, BCR-ABL1 T315I, BCR-ABL1 T315M, BCR-ABL1 Y253H/E255K, BCR-ABL1 E255V/T3151, BCR-ABL1 A424T, BCR-ABL1 A337V, BCR-ABL1 P465S, BCR-ABL1 V468F, and BCR-ABL1 I502L were all monoclonal engineered cell lines obtained by transducting Ba/F3 parental cells with the lentivirus plasmids containing WT or corresponding mutated BCR-ABL1.
# (§2) The steps of cell viability assay are as follows: • a) Cells in logarithmic growth phase were collected. Cell suspension was prepared and the cells were counted. Concentration of the cells was calculated. • b) The cell suspension was diluted to the required concentration and then added to the middle wells of a 96-well plate, and PBS was added to the edge wells. The wells with no cells and only culture medium were used as blank controls. • c) In addition to the cell plate used for compound analysis, another 96-well plate was prepared as a T0 plate, and 3-6 blank wells and 3-6 cell wells were added. The next day, CTG was used to test the cell viability as the T0 viability value of the cells. • d) The cell plate was incubated at 37 °C in a 5% CO2 incubator overnight. • e) The next day, each concentration of a compound subjected to a gradient dilution was added, and the cell plate was incubated at 37 °C in a 5% CO2 incubator for 72 h. The wells with no compound and only 0.5% DMSO were used as positive controls for cell growth. • f) CTG reagent (CellTiter-Glo kit) was added according to the manufacturer's instructions to test the cell viability value. • g) The plate was read using Biotek cytation3.0 microplate reader and the data were exported. • h) IC50 was calculated using GraphPad Prism 7.0 software.
# (§3) The IC50 (half-maximal inhibitory concentration) of the compound was obtained using the following nonlinear fitting formula: Y = Bottom + (Top−Bottom)/(1+10^(∧)((LogIC50−X)*HillSlope)) [formula] • X: Log value of the compound concentration • Y: Inhibition rate (% inhibition) • Top: Maximum response • Bottom: Baseline response • HillSlope: Slope of the curve
# (§4) The formula for calculating cell inhibition rate (inhibition rate %) was: [formula]
# [2] = target: T1, Ba/F3 BCR-ABL1 WT (Homo sapiens, UniProt P00519+P11274); experiment: Cell growth inhibitory activity assay (CellTiter-Glo), Ba/F3 BCR-ABL1 WT cells; details: 72 h, CTG cell viability
# T1 construct: BCR (N-terminal fusion partner of the oncoprotein); expressed in transfected cells; host or cells: Ba/F3 (lentiviral transduction, monoclonal line)
# Protocol: as §1, §2, §3, §4
# [3] = target: T2, Ba/F3 BCR-ABL1 T315I (Homo sapiens, UniProt P00519+P11274, T315I); experiment: Cell growth inhibitory activity assay (CellTiter-Glo), Ba/F3 BCR-ABL1 T315I cells; details: 72 h, CTG cell viability
# T2 construct: BCR (N-terminal fusion partner of the oncoprotein); expressed in transfected cells; host or cells: Ba/F3 (lentiviral transduction, monoclonal line)
# Protocol: as §1, §2, §3, §4
# [4] = system: Ba/F3 parental cells; experiment: Cell growth inhibitory activity assay (CellTiter-Glo), Ba/F3 parental cells; details: Mus musculus, BaF3, 72 h, CTG cell viability, read-out: IC50 Ba/F3 BCR-ABL1 Parental
# Protocol: as §1, §2, §3, §4
smiles,measurement,setting,value
"Cn1ccc2cnc(-n3cc4c(n3)-c3cc(-c5cc(C(=O)Nc6ccc(OC(F)(F)Cl)cc6)cnc5N5CC[C@@H](F)C5)cnc3C4)nc21 [T-38, (R)-N-(4-(chlorodifluoromethoxy)phenyl)-6-(3-fluoropyrrolidin-1-yl)-5-(2-(7-methyl-7H-pyrrolo[2,3-d]pyrimidin-2-yl)-2,4-dihydropyrazolo[3',4':3,4]cyclopenta[1,2-b]pyridin-7-yl)nicotinamide]",IC50,[1],≤ 5 nM
same,IC50,[2],≤ 5 nM
same,IC50,[3],≤ 5 nM
same,IC50,[4],> 1000 nM
"C[C@@H]1CN(C)Cc2nc3cc(C(=O)Nc4ccc(OC(F)(F)Cl)cc4)cc(-c4cnc5c(c4)-c4n[nH]cc4C5)c3n21 [T-40, (R)-N-(4-(chlorodifluoromethoxy)phenyl)-6-(2,4-dihydropyrazolo[3',4':3,4]cyclopenta[1,2-b]pyridin-7-yl)-2,4-dimethyl-1,2,3,4-tetrahydrobenzo[4,5]imidazo[1,2-a]pyrazine-8-carboxamide]",IC50,[1],≤ 5 nM
same,IC50,[2],≤ 5 nM
same,IC50,[3],> 1000 nM
same,IC50,[4],> 1000 nM
"O=C(Nc1ccc(OC(F)(F)Cl)cc1)c1cnc(N2CC[C@@H](F)C2)c(-c2cnc3c(c2)-c2nn(-c4ncc5ccsc5n4)cc2C3)c1 [T-44, (R)-N-(4-(chlorodifluoromethoxy)phenyl)-6-(3-fluoropyrrolidin-1-yl)-5-(2-(thieno[2,3-d]pyrimidin-2-yl)-2,4-dihydropyrazolo[3',4':3,4]cyclopenta[1,2-b]pyridin-7-yl)nicotinamide]",IC50,[1],≤ 5 nM
same,IC50,[2],≤ 5 nM
same,IC50,[3],≤ 5 nM
same,IC50,[4],> 1000 nM
"CCC(=O)n1cc2c(n1)-c1cc(-c3cc(C(=O)Nc4ccc(OC(F)(F)Cl)cc4)cc4nc5n(c34)[C@H](C)COC5)cnc1C2 [T-45, (R)-N-(4-(chlorodifluoromethoxy)phenyl)-4-methyl-6-(2-propionyl-2,4-dihydropyrazolo[3',4':3,4]cyclopenta[1,2-b]pyridin-7-yl)-3,4-dihydro-1H-benzo[4,5]imidazo[2,1-c][1,4]oxazine-8-carboxamide]",IC50,[1],≤ 5 nM
same,IC50,[2],≤ 5 nM
same,IC50,[3],≤ 5 nM
same,IC50,[4],> 1000 nM
"CC(C)C(=O)n1cc2c(n1)-c1cc(-c3cc(C(=O)Nc4ccc(OC(F)(F)Cl)cc4)cc4nc5n(c34)[C@H](C)COC5)cnc1C2 [T-46, (R)-N-(4-(chlorodifluoromethoxy)phenyl)-6-(2-isobutyryl-2,4-dihydropyrazolo[3',4':3,4]cyclopenta[1,2-b]pyridin-7-yl)-4-methyl-3,4-dihydro-1H-benzo[4,5]imidazo[2,1-c][1,4]oxazine-8-carboxamide]",IC50,[1],≤ 5 nM
same,IC50,[2],≤ 5 nM
same,IC50,[3],≤ 5 nM
same,IC50,[4],> 1000 nM
"C[C@@H]1COCc2nc3cc(C(=O)Nc4ccc(OC(F)(F)Cl)cc4)cc(-c4cnc5c(c4)-c4nn(C(=O)C6CC6)cc4C5)c3n21 [T-47, (R)-N-(4-(chlorodifluoromethoxy)phenyl)-6-(2-(cyclopropylcarbonyl)-2,4-dihydropyrazolo[3',4':3,4]cyclopenta[1,2-b]pyridin-7-yl)-4-methyl-3,4-dihydro-1H-benzo[4,5]imidazo[2,1-c][1,4]oxazine-8-carboxamide]",IC50,[1],≤ 5 nM
same,IC50,[2],≤ 5 nM
same,IC50,[3],≤ 5 nM
same,IC50,[4],> 1000 nM
"O=C(Nc1ccc(OC(F)(F)Cl)cc1)c1cnc(N2CC[C@@H](F)C2)c(-c2cnc3c(c2)-c2nn(-c4ncc(N5CC[C@@H](F)C5)cn4)cc2C3)c1 [T-50, N-(4-(chlorodifluoromethoxy)phenyl)-6-((R)-3-fluoropyrrolidin-1-yl)-5-(2-(5-((R)-3-fluoropyrrolidin-1-yl)pyrimidin-2-yl)-2,4-dihydropyrazolo[3',4':3,4]cyclopenta[1,2-b]pyridin-7-yl)nicotinamide]",IC50,[1],≤ 5 nM
same,IC50,[2],≤ 5 nM
same,IC50,[3],5 to 50 nM
same,IC50,[4],> 1000 nM
"[2H]C([2H])([2H])n1cc2c(n1)-c1cc(-c3cc(C(=O)Nc4ccc(OC(F)(F)Cl)cc4)cc4nc5n(c34)[C@H](C)COC5)cnc1C2 [T-53, (R)-N-(4-(chlorodifluoromethoxv)phenyl)-4-methyl-6-(2-(methyl-d3)-2,4-dihydropyrazolo[3',4':3,4]cyclopenta[1,2-b]pyridin-7-yl)-3,4-dihydro-1H-benzo[4,5]imidazo[2,1-c][1,4]oxazine-8-carboxamide]",IC50,[1],≤ 5 nM
same,IC50,[2],≤ 5 nM
same,IC50,[3],≤ 5 nM
same,IC50,[4],> 1000 nM
"O=C(Nc1ccc(OC(F)(F)Cl)cc1)c1cnc(N2CC[C@@H](F)C2)c(-c2cnc3c(c2)-c2nn(-c4ncc(N5CC[C@H](F)C5)cn4)cc2C3)c1 [T-55, N-(4-(chlorodifluoromethoxy)phenyl)-6-((R)-3-fluoropyrrolidin-1-yl)-5-(2-(5-((S)-3-fluoropyrrolidin-1-yl)pyrimidin-2-yl)-2,4-dihydropyrazolo[3',4':3,4]cyclopenta[1,2-b]pyridin-7-yl)nicotinamide]",IC50,[1],≤ 5 nM
same,IC50,[2],≤ 5 nM
same,IC50,[3],5 to 50 nM
same,IC50,[4],> 1000 nM
"C[C@@H]1COCc2nc3cc(C(=O)Nc4ccc(OC(F)(F)Cl)cc4)cc(-c4cnc5c(c4)-c4nn(CCOC(C)(C)C)cc4C5)c3n21 [T-56-A, (R)-6-(2-(2-(tert-butoxy)ethyl)-2,4-dihydropyrazolo[3',4':3,4]cyclopenta[1,2-b]pyridin-7-yl)-N-(4-(chlorodifluoromethoxy)phenyl)-4-methyl-3,4-dihydro-1H-benzo[4,5]imidazo[2,1-c][1,4]oxazine-8-carboxamide]",IC50,[1],5 to 50 nM
same,IC50,[2],50 to 1000 nM
same,IC50,[3],> 1000 nM
same,IC50,[4],> 1000 nM
"C[C@@H]1COCc2nc3cc(C(=O)Nc4ccc(OC(F)(F)Cl)cc4)cc(-c4cnc5c(c4)-c4c(cnn4CCOC(C)(C)C)C5)c3n21 [T-56-B, (R)-6-(1-(2-(tert-butoxy)ethyl)-1,4-dihydropyrazolo[3',4':3,4]cyclopenta[1,2-b]pyridin-7-yl)-N-(4-(chlorodifluoromethoxy)phenyl)-4-methyl-3,4-dihydro-1H-benzo[4,5]imidazo[2,1-c][1,4]oxazine-8-carboxamide]",IC50,[1],≤ 5 nM
same,IC50,[2],≤ 5 nM
same,IC50,[3],> 1000 nM
same,IC50,[4],> 1000 nM
"C[C@@H]1COCc2nc3cc(C(=O)Nc4ccc(OC(F)(F)Cl)cc4)cc(-c4cnc5c(c4)C(=O)CC5)c3n21 [T-58, (R)-N-(4-(chlorodifluoromethoxy)phenyl)-4-methyl-6-(5-oxo-6,7-dihydro-5H-cyclopenta[b]pyridin-3-yl)-3,4-dihydro-1H-benzo[4,5]imidazo[2,1-c][1,4]oxazine-8-carboxamide]",IC50,[1],≤ 5 nM
same,IC50,[2],≤ 5 nM
same,IC50,[3],5 to 50 nM
same,IC50,[4],> 1000 nM
"C[C@@H]1COCc2nc3cc(C(=O)Nc4ccc(OC(F)(F)Cl)cc4)cc(-c4cnc5c(c4)C(=O)/C(=C\N(C)C)C5)c3n21 [T-59, (R,Z)-N-(4-(chlorodifluoromethoxy)phenyl)-6-(6-((dimethylamino)methylene)-5-oxo-6,7-dihydro-5H-cyclopenta[b]pyridin-3-yl)-4-methyl-3,4-dihydro-1H-benzo[4,5]imidazo[2,1-c][1,4]oxazine-8-carboxamide]",IC50,[1],≤ 5 nM
same,IC50,[2],≤ 5 nM
same,IC50,[3],50 to 1000 nM
same,IC50,[4],> 1000 nM
"C[C@@H]1COCc2nc3cc(C(=O)Nc4ccc(OC(F)(F)Cl)cc4)cc(-c4cnc5c(c4)-c4n[nH]cc4C5=O)c3n21 [T-60, (R)-N-(4-(chlorodifluoromethoxy)phenyl)-4-methyl-6-(4-oxo-2,4-dihydropyrazolo[3',4':3,4]cyclopenta[1,2-b]pyridin-7-yl)-3,4-dihydro-1H-benzo[4,5]imidazo[2,1-c][1,4]oxazine-8-carboxamide]",IC50,[1],≤ 5 nM
same,IC50,[2],≤ 5 nM
same,IC50,[3],> 1000 nM
same,IC50,[4],> 1000 nM
"C[C@@H]1COCc2nc3cc(C(=O)Nc4ccc(OC(F)(F)Cl)cc4)cc(-c4ccc5c(c4)C(=O)N(C)C5)c3n21 [T-61, (R)-N-(4-(chlorodifluoromethoxy)phenyl)-4-methyl-6-(2-methyl-3-oxoisoindolin-5-yl)-3,4-dihydro-1H-benzo[4,5]imidazo[2,1-c][1,4]oxazine-8-carboxamide]",IC50,[1],≤ 5 nM
same,IC50,[2],≤ 5 nM
same,IC50,[3],5 to 50 nM
same,IC50,[4],> 1000 nM
